Test results published in PMC3681751, “Identification of a Novel Antimicrobial Peptide from Human Hepatitis B Virus Core Protein Arginine-Rich Domain (ARD)” (PLoS Pathogens, 2013).
Read-outs that look alike come from different tables or passages of the source.

What was measured:
E. coli (ATCC 25922) = assay type: cell-based, Escherichia coli; details: triplicate
Summary of the method: (§1)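 Mid-log bacteria at 10^6 CFU/ml in 10 mM sodium phosphate, 50 mM NaCl, pH 7.2, exposed to serially diluted HBc ARD peptides for 3 h at 37 °C without shaking. Mixtures plated on Mueller-Hinton agar overnight to give minimal bactericidal concentration; triplicate tests.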

[1] = test system: P. aeruginosa (ATCC 27853); assay type: cell-based, Pseudomonas aeruginosa; details: ampicillin-resistant strain, triplicate
Summary of the method: as §1

[2] = test system: P. aeruginosa (ATCC 9027); assay type: cell-based, Pseudomonas aeruginosa; details: ampicillin-resistant strain, triplicate
Summary of the method: as §1

[3] = test system: K. pneumonia (ATCC 13884); assay type: cell-based, Klebsiella pneumoniae; details: triplicate
S. aureus (ATCC 25923) = assay type: cell-based, Staphylococcus aureus; details: methicillin-resistant strain, triplicate
Procedure: (§2) The antimicrobial activities of HBc ARD peptides were tested using a number of bacterial strains from ATCC, including Pseudomonas aeruginosa Migula strain (ATCC 27853, ampicillin-resistant), Pseudomonas aeruginosa Migula strain (ATCC 9027, ampicillin-resistant), Klebsiella pneumoniae strain (ATCC 17593), Escherichia coli strain (ATCC 25922), Staphylococcus aureus subsp. strain (ATCC 25923, methicillin-resistant), Staphylococcus aureus subsp. strain (ATCC 29213, methicillin-resistant), Staphylococcus aureus subsp. strain (ATCC 19636, methicillinresistant), and Candida albicans strain (ATCC 10231).
(§3) All peptides were purchased from Yao-Hong Biotechnology Inc. (Taipei, Taiwan). Vendors provided data of peptide characterizations, including HPLC and Mass (data not shown). Antimicrobial activity was determined as described with some modifications as detailed below. Bacteria were grown overnight in Mueller–Hinton broth (Difco) at 37°C, and during the mid-logarithmic phase, bacteria were diluted to 10^6 CFU (colony formation unit)/ml in phosphate buffer (10 mM sodium phosphate and 50 mM sodium chloride, pH 7.2). Peptides were serially diluted in the same buffer. Fifty microliter (µl) of bacteria was mixed with fifty µl of peptides at varying concentrations followed by incubation at 37°C for 3 hours without shaking. At the end of incubation, bacteria were placed on Mueller-Hinton broth agar plates, and allowed growth at 37°C overnight for measurement of minimal bactericidal concentration (MBC). […] All peptides were tested in triplicate.

S. aureus (ATCC 19636) = assay type: cell-based, Staphylococcus aureus; details: methicillin-resistant strain, triplicate
Procedure: as §2, §3

S. aureus (ATCC 29213) = assay type: cell-based, Staphylococcus aureus; details: methicillin-resistant strain, triplicate
Procedure: as §2, §3

Vero cells = experiment: Cytotoxicity, MTT assay; assay type: cell-based, monkey; details: 1 hour at 37°C; HBc147-183 at 100 µM, melittin at 3.125 µM; triplicates
Procedure: (§4) Cytotoxicity was measured for HepG2, Huh7, HEK293, and Vero cells by MTT assay. Cells were seeded at 10^4 cells/well in a 96-well plate and serial dilutions of peptides were added into each well. PBS was used as a negative control and melittin was used as a positive control. After 1 hour of incubation, the medium were replaced by fresh medium containing 10% MTT solution (Promega), and the plate was incubated for 4 hours in 5% CO2 at 37°C. The absorbance at the wavelength of 595 nm was measured by an ELISA reader (Bio-Rad model 680).

Huh7 cells = experiment: Cytotoxicity, MTT assay; assay type: cell-based, human; details: 1 hour at 37°C; HBc147-183 at 100 µM, melittin at 3.125 µM; triplicates
Procedure: as §4

HEK293 cells = experiment: Cytotoxicity, MTT assay; assay type: cell-based, human; details: 1 hour at 37°C; HBc147-183 at 100 µM, melittin at 3.125 µM; triplicates
Procedure: as §4

HepG2 cells = experiment: Cytotoxicity, MTT assay; assay type: cell-based, human; details: 1 hour at 37°C; HBc147-183 at 100 µM, melittin at 3.125 µM; triplicates
Procedure: as §4

C. albicans (ATCC 10231) = assay type: cell-based, Candida albicans; details: fungi, triplicate
Procedure: as §2, §3

[4] = 3 h at 37°C in 10 mM sodium phosphate, 50 mM NaCl, pH 7.2, 10^6 CFU/ml, ND = not detectable
[5] = 3 h at 37°C in phosphate buffer pH 7.2

SMILES: CC[C@H](C)[C@H](NC(=O)CN)C(=O)NCC(=O)N[C@@H](C)C(=O)N[C@H](C(=O)N[C@@H](CC(C)C)C(=O)N[C@@H](CCCCN)C(=O)N[C@H](C(=O)N[C@@H](CC(C)C)C(=O)N[C@H](C(=O)N[C@H](C(=O)NCC(=O)N[C@@H](CC(C)C)C(=O)N1CCC[C@H]1C(=O)N[C@@H](C)C(=O)N[C@@H](CC(C)C)C(=O)N[C@H](C(=O)N[C@@H](CO)C(=O)N[C@@H](Cc1c[nH]c2ccccc12)C(=O)N[C@H](C(=O)N[C@@H](CCCCN)C(=O)N[C@@H](CCCNC(=N)N)C(=O)N[C@@H](CCCCN)C(=O)N[C@@H](CCCNC(=N)N)C(=O)N[C@@H](CCC(N)=O)C(=O)N[C@@H](CCC(N)=O)C(N)=O)[C@@H](C)CC)[C@@H](C)CC)[C@@H](C)O)[C@@H](C)O)C(C)C)C(C)C [Melittin, reference compound]
- Antimicrobial activity, MBC (E. coli (ATCC 25922); [4]): 2 µM
- Antimicrobial activity, MBC (E. coli (ATCC 25922); [5]): 5.7 µg/mL
- Antimicrobial activity, MBC [1, 4]: 2 µM
- Antimicrobial activity, MBC [1, 5]: 5.7 µg/mL
- Antimicrobial activity, MBC [2, 4]: 2 µM
- Antimicrobial activity, MBC [2, 5]: 5.7 µg/mL
- Antimicrobial activity, MBC [3, 4]: 2 µM
- Antimicrobial activity, MBC [3, 5]: 5.7 µg/mL
- Antimicrobial activity, MBC (S. aureus (ATCC 25923); [4]): 2 µM
- Antimicrobial activity, MBC (S. aureus (ATCC 25923); [5]): 5.7 µg/mL
- Antimicrobial activity, MBC (S. aureus (ATCC 19636); [4]): 1 µM
- Antimicrobial activity, MBC (S. aureus (ATCC 19636); [5]): 2.85 µg/mL
- Antimicrobial activity, MBC (S. aureus (ATCC 29213); [4]): 1 µM
- Antimicrobial activity, MBC (S. aureus (ATCC 29213); [5]): 2.85 µg/mL
- Cell viability / cytotoxicity (MTT) (Vero cells): significantly decreased
- Cell viability / cytotoxicity (MTT) (Huh7 cells): significantly decreased
- Cell viability / cytotoxicity (MTT) (HEK293 cells): significantly decreased
- Cell viability / cytotoxicity (MTT) (HepG2 cells): significantly decreased
- Antimicrobial activity, MBC (C. albicans (ATCC 10231); 3 h at 37°C in 10 mM sodium phosphate, 50 mM NaCl, pH 7.2, ND = not detectable): 4 µM
- Antimicrobial activity, MBC (C. albicans (ATCC 10231); [5]): 11.4 µg/mL
